In US20080118494A1, “Compositions For Detection Of Latent Hiv Reactivation And Methods Of Using The Same” (priority 2004, published 2008):

System: latent HIV-1 infection in LWI6 cells
Test: Reactivation of latent HIV-1 in LWI6 reporter cells, EGFP plate based fluorometry (384-well)
Type: cell-based
Conditions: LWI6, 1×10^5 cells/well, 384-well plate
From the text: Latently HIV-1 infected reporter cell lines with an increased dynamic range of the EGFP signal. An indicator cell line with HTS feasibility was generated through stable transfection with a reporter plasmid in which the HIV-1 promoter (long terminal repeat; LTR) controls the expression of EGFP. Nucleic acid sequences for HIV-1 LTR (SEQ ID NO:1) can be accessed via GenBank Accession No. X03189. All of the information, including any nucleic acid and amino acid sequences provided for HIV-1 LTR under GenBank Accession X03189 is hereby incorporated in its entirety by this reference. […] In the resulting latently infected T cell clones (LWI4, LWI6, LWI7, LRJ3, LRJ5, LRJ12), maximal EGFP expression was increased by a factor of 10 in comparison to other reporter cell lines incorporating GFP into the HIV-1 genome when analyzed by flow cytometry (FIG. 1).
Assay optimization in […] format plates. […] The need to work with low quantities of material and thus low numbers of reporter cells that are treated has to be balanced with the requirements to obtain a sufficiently high signal to background ratio to avoid false negative hits during the screen. […] Although EGFP fluorescence continued to increase up to the highest density of cells, wells with 1×10^5 cells gave a 40-fold increase of EGFP fluorescence intensity over background after 24 h, and an 80-fold increase after 48 h. […]

TNF-α
increase of EGFP fluorescence intensity over background (after 24 h): 40 fold | increase of EGFP fluorescence intensity over background (after 48 h): 80 fold
